According to paper PMC7948422, “Repurposing p97 inhibitors for chemical modulation of the bacterial ClpB–DnaK bichaperone system” (The Journal of Biological Chemistry, 2020):

Experiments:
DnaK NBD = target: T1, DnaK NBD (Escherichia coli, UniProt P0A6Y8); assay: DnaK NBD ATPase activity assay; assay type: biochemical; settings: 100 µM DBeQ, 37 °C
T1 construct: the NBD of E. coli DnaK (residues 1–388); His-tag (pET28a) (C); made in house; host or cells: E. coli BL21(DE3)
Experimental: To determine the ATPase activity of DnaK, 18 μl of DnaK solution or DnaK NBD solution prepared in buffer C was mixed with 1 μl of the investigated compounds or DMSO as a control. Samples without DnaK were used as control blanks. The samples were preincubated for 10 min at 37 °C. The reaction was initiated by adding 1 μl of 100-mM ATP bringing the final concentration of DnaK to 1.1 μM or DnaK NBD to 3.4 μM. The samples were incubated at 37 °C for 70 min for DnaK or 75 min for NBD. The concentration of inorganic phosphate produced from ATP in the presence of DnaK was determined as described above for ClpB.

ClpB = target: T2, ClpB (Escherichia coli, UniProt P63284); assay: Pilot chemical library screen of ClpB ATPase (BioMol Green); assay type: biochemical; settings: 388 bioactive compounds, in the presence of 25 μM κ-casein
T2 construct: made in house
Experimental: An absorbance-based assay for ClpB ATPase activity was developed by using BioMol Green Reagent (Enzo Life Sciences, Farmington, NY) for screening in a 384-microplate–based format. The optimized assay conditions were as follows: ClpB (150 nM), ATP ([…]), and κ-casein (25 μM) in 100-mM Tris/HCl, pH 8, 10-mM MgCl2, 1-mM DTT, and 1-mM EDTA. The samples were incubated for 10 min at 37 °C, and the ATP hydrolysis reaction was terminated by adding 80 μl of BIOMOL Green. Absorbance at 620 nm was measured with a PerkinElmer EnSpire. The optimized assay was used to screen compounds drawn from Selleck Bioactive library (1900 compounds; Selleck Chemicals, Houston, TX) in the presence or absence of κ-casein.

ClpB E279Q/E678Q = target: T3, ClpB E279Q/E678Q (Escherichia coli, UniProt P63284, E279Q/E678Q); assay: FITC-casein fluorescence anisotropy titration with ClpB E279Q/E678Q; assay type: binding
T3 construct: made in house
Experimental: To monitor interactions between casein and ClpB, we used FITC-casein and the substrate-trapping ClpB E279Q/E678Q variant ([52], [73]). The titration of FITC-casein with ClpB E279Q/E678Q in the presence of ATP or ADP and the fluorescence anisotropy measurements were performed as previously described ([65]).

[1] = target: glucose-6-phosphate dehydrogenase (G6PDH) (Leuconostoc mesenteroides, UniProt P11411); assay: Native G6PDH activity; assay type: biochemical; settings: increasing DBeQ concentration
glucose-6-phosphate dehydrogenase (G6PDH), sequence (P11411 whole entry): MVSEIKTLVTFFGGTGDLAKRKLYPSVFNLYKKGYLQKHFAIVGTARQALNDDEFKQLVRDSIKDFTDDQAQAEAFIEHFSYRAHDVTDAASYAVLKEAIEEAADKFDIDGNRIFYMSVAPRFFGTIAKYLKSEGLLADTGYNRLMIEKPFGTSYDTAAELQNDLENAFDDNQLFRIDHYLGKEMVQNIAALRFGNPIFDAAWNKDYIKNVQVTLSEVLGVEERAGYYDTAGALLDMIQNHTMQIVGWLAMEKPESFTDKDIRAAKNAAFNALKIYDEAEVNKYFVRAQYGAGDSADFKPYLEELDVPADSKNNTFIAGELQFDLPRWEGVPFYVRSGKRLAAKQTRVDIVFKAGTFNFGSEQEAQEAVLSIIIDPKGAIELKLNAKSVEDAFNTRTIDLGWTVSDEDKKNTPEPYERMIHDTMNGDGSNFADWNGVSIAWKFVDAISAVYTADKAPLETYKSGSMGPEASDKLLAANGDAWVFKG
Experimental: G6PDH was chemically denatured by mixing 5 μl of the G6PDH stock solution (441 μM) with 5 μl of buffer A (10 M urea, 16% glycerol, 40-mM DTT) preheated at 47 °C. The samples of G6PDH in buffer A were incubated for 5 min at 47 °C. Subsequently, 5 μl of denatured G6PDH was mixed with 95 μl of buffer B (50-mM Tris-HCl, pH 7.4, 20-mM Mg(OAc)2, 30-mM KCl, 1-mM EDTA, 1-mM β-mercaptoethanol) preheated at 47 °C to initiate protein refolding, which, under these conditions, is inefficient and leads to misfolding and aggregation of G6PDH ([69]). G6PDH aggregate production was arrested after 1 min (for refolding by KJE) or 15 min (for refolding by KJE with ClpB) by transferring into ice for 2 min. […] The plate was inserted into Synergy H1 plate reader (BioTek, Winooski, VT) with the chamber temperature at 30 °C, and the sample absorbance at 340 nm was measured after 10 min. The amount of NADPH produced was calculated based on the NADPH molar extinction coefficient, Ɛ340 = 6220 [M^−1 ⋅ cm^−1]. […]
conditions. The ATPase activity of wt ClpB was determined at 37 and 45 °C as the function of DBeQ concentration. […]
Supplementary Figure 7. […] (A) Firefly luciferase activity was determined in the absence (DMSO) or in the presence 100 µM ClpB inhibitor candidates. […] (B) G6PDH activity was determined in the presence of an increasing concentration of DBeQ and normalized to the DMSO control. […]

T1 sequence (P0A6Y8 1-388): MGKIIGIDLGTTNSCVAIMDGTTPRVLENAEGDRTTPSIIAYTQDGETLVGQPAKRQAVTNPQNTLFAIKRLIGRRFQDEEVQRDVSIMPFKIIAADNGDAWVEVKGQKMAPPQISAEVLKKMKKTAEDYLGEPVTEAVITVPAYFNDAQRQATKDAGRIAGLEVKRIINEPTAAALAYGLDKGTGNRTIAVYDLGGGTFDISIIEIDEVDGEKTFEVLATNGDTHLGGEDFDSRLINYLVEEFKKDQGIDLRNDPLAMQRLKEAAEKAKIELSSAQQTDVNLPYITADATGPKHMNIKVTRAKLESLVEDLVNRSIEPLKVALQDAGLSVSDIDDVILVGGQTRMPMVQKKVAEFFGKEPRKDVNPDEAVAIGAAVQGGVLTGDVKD

c1ccc(CNc2nc(NCc3ccccc3)c3ccccc3n2)cc1 [DBeQ, N^2,N^4-dibenzylquinazoline-2,4-diamine]
effect on ATPase activity of isolated DnaK NBD (DnaK NBD): did not inhibit
candidate ClpB ATPase inhibitor in pilot screen (ClpB): candidate ClpB ATPase inhibitor
Kd (ClpB E279Q/E678Q): 78.5 nM
effect on ATP-dependent binding of casein to ClpB (ClpB E279Q/E678Q; 80-μM DBeQ): did not inhibit
Hill number of ClpB–FITC-casein binding with DBeQ (ClpB E279Q/E678Q; 80-μM DBeQ, 5-mM ATP): 1.48
saturation signal of ClpB–FITC-casein binding with DBeQ (ClpB E279Q/E678Q; 80-μM DBeQ, 5-mM ATP): 0.11
effect on native G6PDH activity [1]: not affected
